Assay: Human radiation dosimetry (OLINDA/EXM)
Conditions: human model, 73 Kg adult male
Protocol: Radiation dosimetry estimates were calculated for a male human model (standard 73 Kg adult) and for a voxelized mouse model by using the mouse biodistribution data (Example 12, Tables 7 and 8) according to the MIRD methodology. Activity concentration in these organs were converted in percent injected dose (% ID) and decay corrected to the time of injection. The % ID for blood, muscle and bone were estimated from the % ID/g of tissue and assuming 6%, 42% and 11% of the body weight. Whenever possible the time activity curves were fitted by a two-phase exponential clearance function. The fitted function was then integrated analytically to yield the organ residence times (Table 9). […] The time activity curve of the tumor was fitted by a mono-exponential uptake function defined as F(t)=a0(1−exp(−a1t)).
Human radiation dosimetry (Table 10) were calculated using the above measured residence times and the OLINDA/EXM program with the following assumptions: 10% of the blood residence time was assigned to the heart content and 90% was assigned to the remainder of the body; the activity measured in the small and large intestines were assigned to the organ content but the radiation dose was assigned to the organ itself; activity in the large intestine was assigned in equal part to the upper and lower large intestines; activity in the bone was assigned in equal parts to the trabecular and […] bone components. The bladder voiding model in OLINDA/EXM was used. Residence time to the red marrow was calculated as a fraction of blood residence time (τmarrow=0.08 τblood).

## O=C([O-])CN1CCN(CC(=O)[O-])CCN(CC(=O)NCCOCCOCCOCCOCCOCCOCCOCCOCCOCCOCCOCCNC(=O)CCCC(=O)Nc2ccc(-c3nnc(-c4ccccn4)nn3)nc2)CCN(CC(=O)[O-])CC1.[177Lu+3] [^177Lu-tetrazine]
  Effective Dose: 0.0195 mSv/MBq
  Organ Radiation dose Adrenals: 0.00162 mGy/MBq
  Organ Radiation dose Bladder Wall: 0.104 mGy/MBq
  Organ Radiation dose Brain: 0.000146 mGy/MBq
  Organ Radiation dose Breasts: 0.0013 mGy/MBq
  Organ Radiation dose Gall Bladder Wall: 0.0018 mGy/MBq
  Organ Radiation dose Heart Wall: 0.000537 mGy/MBq
  Organ Radiation dose Kidneys: 0.0425 mGy/MBq
  Organ Radiation dose Liver: 0.0142 mGy/MBq
  Organ Radiation dose Lower Large Int.: 0.0363 mGy/MBq
  Organ Radiation dose Lungs: 0.00288 mGy/MBq
  Organ Radiation dose Muscle: 0.000861 mGy/MBq
  Organ Radiation dose Osteogenic cells: 0.00172 mGy/MBq
  Organ Radiation dose Ovaries: 0.0341 mGy/MBq
  Organ Radiation dose Pancreas: 0.00164 mGy/MBq
  Organ Radiation dose Red marrow: 0.00302 mGy/MBq
  Organ Radiation dose Skin: 0.0029 mGy/MBq
  Organ Radiation dose Small Intestines: 0.0101 mGy/MBq
  Organ Radiation dose Spleen: 0.0112 mGy/MBq
  Organ Radiation dose Stomach Wall: 0.00599 mGy/MBq
  Organ Radiation dose Testes: 0.00151 mGy/MBq
  Organ Radiation dose Thymus: 0.00134 mGy/MBq
  Organ Radiation dose Thyroid: 0.00132 mGy/MBq
  Organ Radiation dose Total Body: 0.00287 mGy/MBq
  Organ Radiation dose Upper large Int.: 0.0231 mGy/MBq
  Organ Radiation dose Uterus: 0.0293 mGy/MBq

Source: patent US9427482B2, “Agents for clearing biomolecules from circulation” (KONINKLIJKE PHILIPS N.V., priority 2010, dated 2016)
